Measured values from patent US20250195521A1 (Revolution Medicines, Inc., priority 2020, published 2025).
Read-outs that look alike come from different tables or passages of the source.

Experiments:
[1] = tested on: Capan-1 cells (K-Ras G12V); experiment: CellTiter-Glo cell viability, Capan-1; format: cell-based, human; conditions: K-Ras G12V, 5-day treatment, read-out: Capan-1 Cell Viability IC50
Summary of the method: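 Five-day treatment of K-Ras mutant cells with directly dispensed compound; ATP-based luminescence endpoint. Percent of DMSO signal fit to four-parameter logistic curve.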

[2] = biological target: KRAS G13C (Homo sapiens (Human), UniProt P01116+P62937, G13C); experiment: Ras-Raf disruption/FRET/MOA assay (BRAF RBD, Cyclophilin A); format: biochemical; conditions: read-out: KRAS G13C FRET IC50
Protocol: (§1) Compound is present in plate wells as a 10-point 3-fold dilution series starting at a final concentration of 30 μM. After incubation at 25° C. for 3 hours, a mixture of Anti-His Eu—W1024 and anti-GST allophycocyanin is then added to assay sample wells at final concentrations of 10 nM and 50 nM, respectively, and the reaction incubated for an additional 1.5 hours. […] Compounds that facilitate disruption of a Ras: RAF complex are identified as those eliciting a decrease in the TR-FRET ratio relative to DMSO control wells.
(§2) Disruption of B-Raf Ras-Binding Domain (BRAF^RBD) Interaction with K-Ras by Compounds of the Invention (Also Called a FRET Assay or an MOA Assay)
(§3) Note—The following protocol describes a procedure for monitoring disruption of K-Ras G12C (GMP-PNP) binding to BRAF^RBD by a compound of the invention. This protocol may also be executed substituting other Ras proteins or nucleotides.
(§4) The purpose of this biochemical assay was to measure the ability of test compounds to facilitate ternary complex formation between a nucleotide-loaded K-Ras isoform and Cyclophilin A; the resulting ternary complex disrupts binding to a BRAF^RBD construct, inhibiting K-Ras signaling through a RAF effector. Data is reported as IC50 values.
(§5) In assay buffer containing 25 mM HEPES pH 7.3, 0.002% Tween20, 0.1% BSA, 100 mM NaCl and 5 mM MgCl2, tagless Cyclophilin A, His6-K-Ras-GMPPNP, and GST-BRAF^RBD were combined in a 384-well assay plate at final concentrations of 25 μM, 12.5 nM and 50 nM, respectively. Compound was present in plate wells as a 10-point 3-fold dilution series starting at a final concentration of 30 μM. After incubation at 25° C. for 3 hours, a mixture of Anti-His Eu—W1024 and anti-GST allophycocyanin was then added to assay sample wells at final concentrations of 10 nM and 50 nM, respectively, and the reaction incubated for an additional 1.5 hours. […] Compounds that facilitate disruption of a K-Ras: RAF complex were identified as those eliciting a decrease in the TR-FRET ratio relative to DMSO control wells.

[3] = biological target: KRAS WT (Homo sapiens (Human), UniProt P01116+P62937); experiment: as above; format: biochemical; conditions: read-out: KRAS WT FRET data IC50
Protocol: as §1, §2, §3, §4, §5

[4] = biological target: KRAS G13D (Homo sapiens (Human), UniProt P01116+P62937, G13D); experiment: as above; format: biochemical; conditions: read-out: KRAS G13D FRET data IC50
Protocol: as §1, §2, §3, §4, §5

[5] = biological target: KRAS G12S (Homo sapiens (Human), UniProt P01116+P62937, G12S); experiment: as above; format: biochemical; conditions: read-out: KRAS G12S FRET IC50
Protocol: as §1, §2, §3, §4, §5

[6] = biological target: KRAS G12D (Homo sapiens (Human), UniProt P01116+P62937, G12D); experiment: as above; format: biochemical; conditions: read-out: KRAS G12D FRET IC50
Protocol: as §1, §2, §3, §4, §5

[7] = biological target: KRAS G12C (Homo sapiens (Human), UniProt P01116+P62937, G12C); experiment: as above; format: biochemical; conditions: read-out: KRAS G12C FRET IC50
Protocol: as §1, §2, §3, §4, §5

[8] = biological target: KRAS G12V (Homo sapiens (Human), UniProt P01116+P62937, G12V); experiment: as above; format: biochemical; conditions: read-out: KRAS G12V FRET IC50
Protocol: as §1, §2, §3, §4, §5

[9] = biological target: NRAS G12C (Homo sapiens (Human), UniProt P01111+P62937, G12C); experiment: as above; format: biochemical; conditions: read-out: NRAS G12C FRET data IC50
Protocol: as §1, §2, §3, §4, §5

[10] = tested on: K-Ras G12C (NCI-H358 cells); experiment: Potency assay: pERK in NCI-H358 cells; format: cell-based, human; conditions: Homo sapiens; NCI-H358 cells, 4 hours; read-out: pERK EC50 (H358 KRAS G12C)
Summary of the method: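 Cells plated the day before were exposed for 4 h at 37° C, 5% CO2 to a 10-point, 3-fold DMSO dilution series (10 mM top stock), in duplicate. Phospho-ERK was read by AlphaLISA SureFire Ultra or by In-Cell Western with DRAQ5 DNA stain, and IC50 came from a 4-parameter sigmoidal fit.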

KRAS G12S, sequence (P01116 other isoform, or with tags, fused parts or gaps G12S): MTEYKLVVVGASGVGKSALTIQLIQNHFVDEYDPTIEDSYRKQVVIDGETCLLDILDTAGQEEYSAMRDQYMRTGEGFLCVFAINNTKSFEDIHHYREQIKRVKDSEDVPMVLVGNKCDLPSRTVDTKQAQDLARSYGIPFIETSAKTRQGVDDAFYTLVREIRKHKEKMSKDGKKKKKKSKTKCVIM
KRAS G12S, sequence (P62937 whole entry): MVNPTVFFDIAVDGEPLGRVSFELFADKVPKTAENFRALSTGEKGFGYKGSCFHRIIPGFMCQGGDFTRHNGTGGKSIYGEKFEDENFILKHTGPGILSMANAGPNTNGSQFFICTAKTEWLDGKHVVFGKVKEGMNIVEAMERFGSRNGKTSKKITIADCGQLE
KRAS G13C, sequence (P01116 other isoform, or with tags, fused parts or gaps G13C): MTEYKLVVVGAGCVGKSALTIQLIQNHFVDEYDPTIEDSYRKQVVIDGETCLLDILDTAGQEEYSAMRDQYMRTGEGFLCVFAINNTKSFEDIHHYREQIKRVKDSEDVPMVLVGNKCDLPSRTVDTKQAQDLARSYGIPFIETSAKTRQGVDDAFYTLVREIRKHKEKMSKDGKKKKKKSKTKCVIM
KRAS G13C, sequence (P62937 whole entry): as the sequence (P62937 whole entry) above
KRAS WT, sequence (P01116 other isoform, or with tags, fused parts or gaps): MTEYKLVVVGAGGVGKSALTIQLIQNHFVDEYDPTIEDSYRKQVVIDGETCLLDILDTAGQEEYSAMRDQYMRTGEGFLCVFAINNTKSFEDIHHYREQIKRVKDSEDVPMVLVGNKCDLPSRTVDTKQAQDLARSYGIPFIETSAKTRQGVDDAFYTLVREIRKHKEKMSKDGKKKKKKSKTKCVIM
KRAS WT, sequence (P62937 whole entry): as the sequence (P62937 whole entry) above
KRAS G13D, sequence (P01116 other isoform, or with tags, fused parts or gaps G13D): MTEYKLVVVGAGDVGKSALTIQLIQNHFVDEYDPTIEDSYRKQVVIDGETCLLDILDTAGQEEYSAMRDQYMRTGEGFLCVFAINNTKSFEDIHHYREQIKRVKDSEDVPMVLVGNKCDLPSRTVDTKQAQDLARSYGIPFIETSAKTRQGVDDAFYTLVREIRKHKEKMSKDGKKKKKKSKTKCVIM
KRAS G13D, sequence (P62937 whole entry): as the sequence (P62937 whole entry) above
KRAS G12C, sequence (P01116-2 other isoform, or with tags, fused parts or gaps G12C): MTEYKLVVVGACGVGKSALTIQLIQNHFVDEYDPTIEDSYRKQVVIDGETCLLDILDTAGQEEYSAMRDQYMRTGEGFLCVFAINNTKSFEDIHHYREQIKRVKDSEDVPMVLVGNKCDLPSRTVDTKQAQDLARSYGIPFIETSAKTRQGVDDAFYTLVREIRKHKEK
KRAS G12C, sequence (P62937 whole entry): as the sequence (P62937 whole entry) above
NRAS G12C, sequence (P01111 whole entry G12C): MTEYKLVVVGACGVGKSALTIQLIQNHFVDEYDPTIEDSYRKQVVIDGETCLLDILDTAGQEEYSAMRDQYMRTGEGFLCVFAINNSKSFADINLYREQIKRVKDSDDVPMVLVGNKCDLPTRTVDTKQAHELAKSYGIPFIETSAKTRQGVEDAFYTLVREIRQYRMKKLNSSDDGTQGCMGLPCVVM
NRAS G12C, sequence (P62937 whole entry): as the sequence (P62937 whole entry) above
KRAS G12V, sequence (P01116 other isoform, or with tags, fused parts or gaps G12V): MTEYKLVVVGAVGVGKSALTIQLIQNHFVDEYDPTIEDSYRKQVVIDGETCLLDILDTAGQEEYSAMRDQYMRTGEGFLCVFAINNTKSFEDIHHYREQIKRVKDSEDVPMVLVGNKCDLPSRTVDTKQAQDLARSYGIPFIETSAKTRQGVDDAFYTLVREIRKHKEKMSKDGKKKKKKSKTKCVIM
KRAS G12V, sequence (P62937 whole entry): as the sequence (P62937 whole entry) above
KRAS G12D, sequence (P01116 other isoform, or with tags, fused parts or gaps G12D): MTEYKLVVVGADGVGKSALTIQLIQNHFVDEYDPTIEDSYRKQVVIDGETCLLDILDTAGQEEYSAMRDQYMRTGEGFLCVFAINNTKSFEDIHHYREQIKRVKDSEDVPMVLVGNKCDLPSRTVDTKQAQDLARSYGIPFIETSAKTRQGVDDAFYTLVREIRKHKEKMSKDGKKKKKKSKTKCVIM
KRAS G12D, sequence (P62937 whole entry): as the sequence (P62937 whole entry) above

Structure (SMILES)	IC50 ([1]; Homo sapiens, CAPAN-1, 120 h) [nM]	IC50 [2] [nM]	IC50 [3] [nM]	IC50 [4] [nM]	IC50 [5] [nM]	IC50 [6] [nM]	IC50 [7] [nM]	IC50 [8] [nM]	IC50 [9] [nM]	EC50 [10] [nM]	IC50 [1] [nM]
CCn1c(-c2cnccc2COC)c2c3cc(ccc31)-c1cc(O)cc(c1)C[C@H](NC(=O)[C@H](C(C)C)N(C)c1nccs1)C(=O)N1CCC[C@H](N1)C(=O)OCC(C)(C)C2 [Compound A86]	> 10000	100 to 1000	1000 to 10000	1000 to 10000	1000 to 10000	> 10000	100 to 1000	1000 to 10000	1000 to 10000	< 5000	–
CCn1c(-c2cnccc2COC)c2c3cc(ccc31)-c1cc(O)cc(c1)C[C@H](NC(=O)[C@H](C(C)C)N(C)C(=O)C1CN(C)C1)C(=O)N1CCC[C@H](N1)C(=O)OCC(C)(C)C2 [Compound A88]	> 10000	10 to 100	100 to 1000	10 to 100	100 to 1000	100 to 1000	100 to 1000	1000 to 10000	100 to 1000	< 5000	–
CCn1c(-c2cccnc2[C@H](C)OC)c2c3cc(ccc31)-c1cccc(c1)C[C@H](NC(=O)[C@H](C(C)C)N(C)C(=O)[C@H]1CCN(C)C1)C(=O)N1CCC[C@H](N1)C(=O)OCC(C)(C)C2 [Compound A107]	1000 to 10000	100 to 1000	1000 to 10000	1000 to 10000	1000 to 10000	1000 to 10000	1000 to 10000	> 10000	1000 to 10000	< 5000	–
CCn1c(-c2cccnc2[C@H](C)OC)c2c3cc(ccc31)-c1cc(O)cc(c1)C[C@H](NC(=O)[C@@H]1[C@H](C)CCN1C(C)=O)C(=O)N1CCC[C@H](N1)C(=O)OCC(C)(C)C2 [Compound A144]	1000 to 10000	100 to 1000	100 to 1000	1000 to 10000	1000 to 10000	1000 to 10000	100 to 1000	1000 to 10000	1000 to 10000	< 5000	–
CCn1c(-c2cccnc2[C@H](C)OC)c2c3cc(ccc31)-c1cc(O)cc(c1)C[C@H](NC(=O)[C@H](C(C)C)N(C)C(=O)[C@H]1CC1(C)C)C(=O)N1CCC[C@H](N1)C(=O)OCC(C)(C)C2 [Compound A158]	1000 to 10000	100 to 1000	100 to 1000	100 to 1000	100 to 1000	100 to 1000	100 to 1000	100 to 1000	100 to 1000	< 5000	–
CCn1c(-c2cccnc2[C@H](C)OC)c2c3cc(ccc31)-c1cc(O)cc(c1)C[C@H](NC(=O)[C@H]1C[C@@H]1C)C(=O)N1CCC[C@H](N1)C(=O)OCC(C)(C)C2 [Compound A182]	1000 to 10000	100 to 1000	1000 to 10000	1000 to 10000	1000 to 10000	> 10000	100 to 1000	1000 to 10000	1000 to 10000	< 5000	–
CCn1c(-c2cccnc2[C@H](C)OC)c2c3cc(ccc31)-c1cc(O)cc(c1)C[C@H](NC(=O)[C@H](C(C)C)N(C)C(=O)[C@@H]1NC[C@@H]3C[C@@H]31)C(=O)N1CCC[C@H](N1)C(=O)OCC(C)(C)C2 [Compound A217]	100 to 1000	10 to 100	10 to 100	10 to 100	10 to 100	100 to 1000	10 to 100	100 to 1000	10 to 100	–	–
CCn1c(-c2cccnc2[C@H](C)OC)c2c3cc(ccc31)-c1cc(O)cc(c1)C[C@H](NC(=O)[C@H](C(C)C)N(C)C(=O)C1CCCC1)C(=O)N1CCC[C@H](N1)C(=O)OCC(C)(C)C2 [Compound A219]	100 to 1000	10 to 100	10 to 100	100 to 1000	10 to 100	100 to 1000	10 to 100	10 to 100	10 to 100	–	–
CCn1c(-c2cccnc2[C@H](C)OC)c2c3cc(ccc31)-c1cc(O)cc(c1)C[C@H](NC(=O)[C@H](C(C)C)N(C)C(=O)C1CNCCO1)C(=O)N1CCC[C@H](N1)C(=O)OCC(C)(C)C2 (stereo partly shown) [Compound A229]	1000 to 10000	10 to 100	100 to 1000	10 to 100	100 to 1000	100 to 1000	10 to 100	100 to 1000	10 to 100	–	–
CCn1c(-c2cccnc2[C@H](C)OC)c2c3cc(ccc31)-c1cc(O)cc(c1)C[C@H](NC(=O)[C@H](C(C)C)N(C)C(=O)[C@H]1CNC[C@@H]1C)C(=O)N1CCC[C@H](N1)C(=O)OCC(C)(C)C2 [Compound A251]	> 10000	10 to 100	100 to 1000	10 to 100	100 to 1000	100 to 1000	100 to 1000	100 to 1000	100 to 1000	–	–
CCn1c(-c2cccnc2[C@H](C)OC)c2c3cc(ccc31)-c1csc(n1)C[C@H](NC(=O)[C@H](C(C)C)N(C)C(=O)N1[C@H](C)COC[C@H]1C)C(=O)N1CCC[C@H](N1)C(=O)OCC(C)(C)C2 [Compound A275]	100 to 1000	10 to 100	10 to 100	10 to 100	10 to 100	100 to 1000	10 to 100	10 to 100	10 to 100	< 5000	–
CCn1c(-c2cccnc2[C@H](C)OC)c2c3cc(ccc31)-c1csc(n1)C[C@H](NC(=O)[C@H](C(C)C)N(C)C(=O)N1CC(C3COC3)C1)C(=O)N1CCC[C@H](N1)C(=O)OCC(C)(C)C2 [Compound A298]	10 to 100	100 to 1000	10 to 100	100 to 1000	100 to 1000	100 to 1000	10 to 100	100 to 1000	10 to 100	–	–
CO[C@@H](C)c1ncccc1-c1c2c3cc(ccc3n1CC(F)(F)F)-c1csc(n1)C[C@H](NC(=O)[C@H](C(C)C)N(C)C(=O)N1CC(N(C)C)C1)C(=O)N1CCC[C@H](N1)C(=O)OCC(C)(C)C2 [Compound A303]	–	100 to 1000	100 to 1000	100 to 1000	100 to 1000	100 to 1000	10 to 100	100 to 1000	10 to 100	–	10 to 100
CCn1c(-c2cccnc2[C@H](C)OC)c2c3cc(ccc31)-c1cc(O)cc(c1)C[C@H](NC(=O)[C@H](C(C)C)N1CNCC1=O)C(=O)N1CCC[C@H](N1)C(=O)OCC(C)(C)C2 [Compound A345]	1000 to 10000	100 to 1000	100 to 1000	100 to 1000	1000 to 10000	1000 to 10000	100 to 1000	100 to 1000	100 to 1000	–	–
CCn1c(-c2cccnc2[C@H](C)OC)c2c3cc(ccc31)-c1cc(O)cc(c1)C[C@H](NC(=O)C(C)=C(C)C)C(=O)N1CCC[C@H](N1)C(=O)OCC(C)(C)C2 [Compound A398]	1000 to 10000	100 to 1000	1000 to 10000	1000 to 10000	1000 to 10000	> 10000	1000 to 10000	1000 to 10000	1000 to 10000	–	–
